Assay results from article PMC12145828 (The Journal of Biological Chemistry, 2025).
Where “and” joins values, the source holds several entries; their conditions need not be identical. Equal entries are not always repeated. Where two headings read alike, the source gives them in different places.

Tests used:
human DP receptors [1] = target: T1, human DP receptors (Homo sapiens, UniProt Q13258); experiment: cAMP formation assay in HEK-DP cells; assay type: cell-based; conditions: for effect on DP receptors in terms of cAMP accumulation: at least up to 100 nM; for τ' (cAMP formation) / τ (cAMP formation), operational efficacy / Kd: Black/Leff operational model; for τ' (cAMP formation): full agonists, τ' = KA' x R; for Emax: 60 min, normalized to 100 nM PGD2-stimulated cAMP as 100%; for EC50: 60 min treatment; for τ (cAMP formation), operational efficacy / Kd: partial agonists; for Kd: read-out: KA (cAMP formation), apparent affinity
T1 construct: expressed in transfected cells
T1 sequence (Q13258 1-359): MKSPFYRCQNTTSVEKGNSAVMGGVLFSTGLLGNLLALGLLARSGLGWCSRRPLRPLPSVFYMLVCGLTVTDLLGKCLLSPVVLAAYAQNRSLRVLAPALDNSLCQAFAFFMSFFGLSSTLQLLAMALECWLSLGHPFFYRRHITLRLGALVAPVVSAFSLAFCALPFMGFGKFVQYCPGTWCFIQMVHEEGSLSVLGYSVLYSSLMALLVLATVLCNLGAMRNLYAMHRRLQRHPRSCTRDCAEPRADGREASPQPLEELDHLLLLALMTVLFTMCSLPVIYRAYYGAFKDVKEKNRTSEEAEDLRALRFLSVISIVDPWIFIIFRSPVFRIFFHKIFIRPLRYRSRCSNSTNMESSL
Experimental: HEK-DP cells were cultured in 6-well plates and, prior to the experiments, the medium was switched from DMEM to Opti-MEM (Thermo Fisher Scientific) containing 250 μg/ml geneticin, 200 μg/ml hygromycin B, and 100 μg/ml gentamicin for 16 h. […] Three hundred microliters of TE buffer (50 mM Tris–HCl, 4 mM EDTA [pH 7.5]) was added, and cells were scraped and transferred to microcentrifuge tubes. Samples were boiled for 8 min, placed on ice, and then centrifuged for 1 min at 16,000g. Between 5 and 25 μl of the supernatants representing approximately 10^4 cells was added to 50 μl of TE buffer containing [^3H]cAMP (PerkinElmer Life Science) and then to 100 μl of 0.06 mg/ml PKA (Sigma–Aldrich; #P5511). The mixture was vortexed and incubated on ice for 120 min. Samples were added to 100 μl of TE buffer containing 2% of bovine serum albumin and 26 mg/ml of powdered activated charcoal (Sigma–Aldrich; #C7606). After vortexing and centrifugation at 16,000g for 5 min, 200 μl of the supernatants were transferred to vials for liquid scintillation.
(§1) The equation "operational model-partial agonist" was performed using the results presented in Figure 2, as reported previously ([20]). The basal level was 0 (Fig. 2A; cAMP) or 1 (Fig. 2B, TCF), and Hill slopes were specified as 1. […] The total responses evoked by the precursor prostanoid and its metabolites were calculated using the formula below ([23]): Response=[A1]/KA1×Tau1+[A2]/KA2×Tau2/[A1]/KA1×(Tau1+1)+[A2]/KA2×(Tau2+1)+1×EffectMax

human DP receptors [2] = target: T1, human DP receptors; experiment: TCF/β-catenin-mediated luciferase reporter assay in HEK-DP cells; assay type: cell-based; conditions: for effect on DP receptor-mediated activation of TCF/β-catenin signaling / EC50 / Emax (fold), β-catenin/TCF-mediated luciferase activity / Emax: HEK-DP cells; for effect on DP receptor-mediated activation of TCF/β-catenin signaling: up to 100 nM; for EC50: 16 h treatment; for τ (TCF transcriptional activity), operational efficacy / Kd: Black/Leff operational model, partial agonists; for Kd: read-out: KA (TCF transcriptional activity), apparent affinity; for Emax (fold), β-catenin/TCF-mediated luciferase activity / Emax: 16 h; for Emax (fold), β-catenin/TCF-mediated luciferase activity: vehicle-treated control as 1.0; for Emax: read-out: Emax of TCF/β-catenin activity as % of the PGD2 value
Experimental: HEK-DP cells were cultured in 6-well plates and, prior to the experiments, medium was switched to Opti-MEM for 16 h with antibiotics, as stated previously. Cells were transiently transfected using HyliMax reagent (Dojindo) with 400 ng/well of either TOP flash or FOP flash reporter plasmids and 2 ng/well of pRL-CMV plasmid (Promega), as described previously ([20]). […] Cells were then lysed and assayed using a dual luciferase reporter assay system (Promega) according to the manufacturer's instructions with TECAN infinite M200 (TECAN). Data were normalized by calculating the ratios of firefly luciferase values to corresponding renilla luciferase scores and corrected for background activity by subtracting FOP flash scores from the corresponding TOP flash values, as described previously ([20]).
as §1

human DP receptors [3] = target: T1, human DP receptors; experiment: competitive whole-cell [^3H]PGD2 radioligand binding assay in HEK-DP cells; conditions: for binding to DP receptors / competition with [^3H]PGD2: at least to a concentration of 100 nM (data not shown)
Experimental: The medium of HEK-DP cells cultured in 10-cm dishes was switched from DMEM containing 10% fetal bovine serum to Opti-MEM at 37 °C for 16 h containing antibiotics, as stated previously. Cells were trypsinized and then resuspended at 1.0 x 10^6 cells/sample in 100 μl of ice-cold 10 mM HEPES buffer (pH 7.4) containing 1 mM EDTA and 10 mM MnCl2 (Sigma–Aldrich). […] Samples were incubated for 2 h at 4 °C, and then the assay was terminated by filtration through Whatman GF/C glass filters (Whatman). Filters were then washed three to five times with ice-cold HEPES buffer, and radioactivity was measured by liquid scintillation counting ([20]).

[4] = cited from earlier work
platelets = tested on: platelets; design: method as in PMID 17452035; conditions: collagen-induced platelet aggregation; cited from earlier work

| Structure (SMILES) | effect on DP receptors in terms of cAMP accumulation (human DP receptors [1]; HEK-DP cells) | effect on DP receptor-mediated activation of TCF/β-catenin signaling (human DP receptors [2]) | binding to DP receptors / competition with [^3H]PGD2 (human DP receptors [3]) | τ' (cAMP formation) (human DP receptors [1]) | Emax (human DP receptors [1]; HEK-DP cells) [%] | EC50 (human DP receptors [1]; HEK-DP cells) | EC50 (human DP receptors [2]) | IC50 (human DP receptors [3]) [nM] | τ (cAMP formation), operational efficacy (human DP receptors [1]) | Kd (human DP receptors [1]) [nM] | τ (TCF transcriptional activity), operational efficacy (human DP receptors [2]) | Kd (human DP receptors [2]) [nM] | Emax (fold), β-catenin/TCF-mediated luciferase activity (human DP receptors [2]) | Emax (human DP receptors [2]) [%] | also measured |
| --- | --- | --- | --- | --- | --- | --- | --- | --- | --- | --- | --- | --- | --- | --- | --- |
| CCCCC/C=C\C=C1\C(=O)C=C[C@@H]1C/C=C\CCCC(=O)O [15-d-PGJ2, 15-deoxy-Δ^12,14-PGJ2] | little effects | little effect | could not bind to DP receptors | – | – | – | – | – | – | – | – | – | – | – | – |
| CCCCC[C@H](O)/C=C/[C@H]1C(=O)C[C@H](O)[C@@H]1C/C=C\CCCC(=O)O [PGD2, Prostaglandin D2] | – | – | – | 11.48 | 100 | ~0.3 nM and 0.301 nM | ~0.08 nM and 0.0892 nM | 2.48 | – | – | – | – | – | – | half-life in blood ([4]; blood): 0.9 min; half-life in plasma ([4]; plasma): 30 min; half-life in blood ([4]; printed as blood): 30 min |
| CCCCCC(=O)CC[C@H]1C(=O)C[C@H](O)[C@@H]1C/C=C\CCCC(=O)O [DK-PGD2, 13,14-dihydro-15-keto PGD2] | – | – | – | – | ~14 | ~62.4 nM and 62.4 nM | 34.7 nM | – | 0.17 | 15 | 0.21 | 18.9 | about 1.28 fold | ~40 | – |
| CCCCC/C=C/C=C1/C(=O)C[C@H](O)[C@@H]1C/C=C\CCCC(=O)O [15-d-PGD2, 15-deoxy-Δ^12,14-PGD2] | little effects | little effect | could not bind to DP receptors | – | – | – | – | – | – | – | – | – | – | – | – |
| CCCCCC(O)CC=C1C(=O)C=CC1CC=CCCCC(=O)O (stereo not shown) [Δ^12-PGJ2] | – | – | – | – | ~67 | ~28.9 nM and 28.9 nM | 8.96 nM | – | 4.08 | 117 | 2.44 | 29.8 | 2.21 fold | ~70 | – |
| CCCCC[C@H](O)/C=C/[C@H]1C(=O)C=C[C@@H]1C/C=C\CCCC(=O)O [PGJ2, prostaglandin J2] | – | – | – | 86.76 | 102 ± 20.2 | ~0.05 nM and 0.0513 nM | ~0.08 nM and 0.0758 nM | 5.11 | – | – | – | – | – | – | time-dependent cAMP formation compared with PGD2, with IBMX pretreatment (human DP receptors [1]; HEK-DP cells, 0.3 nM ligand, 0.1 mg/ml IBMX for 25 min): significantly more cAMP from 5 to 60 min compared with PGD2; time-dependent cAMP formation compared with PGD2, without IBMX pretreatment (human DP receptors [1]; HEK-DP cells, 0.3 nM ligand, no IBMX): significantly form more cAMP from 10 to 30 min compared with PGD2; potency of inhibiting platelet aggregation, times lower than that of PGD2 (platelets): 13 times |
